Reference: US11180452B2, “Methods and compositions for selectively inhibiting pathogenic microbes” (priority 2019, dated 2021)
≈ marks a conversion by molar mass, not a printed value. Where “and” joins values, the source holds several entries; their conditions need not be identical. Equal entries are not always repeated. Where two headings read alike, the source gives them in different places.

How the values were obtained:
Bacillus subtilis = Bacillus subtilis MIC / MBC; format: cell-based; settings: for MBC: Bacillus subtilis NRRL: B-571, minimum bactericidal concentration; for MIC: Bacillus subtilis
Candida glabrata = Candida glabrata MIC / MFC; format: cell-based; settings: Nakaseomyces glabratus; for MFC: read-out: MFC; for MIC: read-out: MIC
N. gonorrhoeae = N. gonorrhoeae MIC; format: cell-based; settings: Neisseria gonorrhoeae, strain #167
[1] = test system: Francisella tularensis subsp. Holarctica Strain LVSR NR-597; test: microbe, parasite or virus in culture; format: cell-based
Bacillus thuringiensis = format: cell-based; settings: for MIC: Bacillus thuringiensis
[2] = test system: Francisella tularensis strains; test: microbe, parasite or virus in culture; format: cell-based
[3] = Toxicity in mice, body weight over 7 days; format: in vivo, Balb/c mice; settings: for Animal body weight (kg) Day 0 / Animal body weight (kg) Day 1 / Animal body weight (kg) Day 2 / Animal body weight (kg) Day 3 / Animal body weight (kg) Day 4 / Animal body weight (kg) Day 5 / Animal body weight (kg) Day 6 / Animal body weight (kg) Day 7: mice, IP; for Animal body weight (kg) Day 0: Day 0, individual animals; for Animal body weight (kg) Day 1: Day 1, individual animals; for Animal body weight (kg) Day 2: Day 2, individual animals; for Animal body weight (kg) Day 3: Day 3, individual animals; for Animal body weight (kg) Day 4: Day 4, individual animals; for Animal body weight (kg) Day 5: Day 5, individual animals; for Animal body weight (kg) Day 6: Day 6, individual animals; for Animal body weight (kg) Day 7: Day 7, individual animals
Text: The vehicle is 40% PEG300 solution in 0.9% NaCl. […] Thus, the compounds are useful for in vivo antimicrobial administration.

NoSpin HepaRG cells = test: HepaRG cytotoxicity, MTT assay EC50; format: cell-based, human; settings: Homo sapiens, HepaRG; cytotoxicity EC50, Table 9
Procedure: Additionally, the antimicrobial compounds were analyzed for cytotoxicity. […] We utilized the standard MTT assay (Promega CellTiter 96) and GraphPad Prism 7 software to determine EC50 values for each analogue. Briefly, 20,000 HepG2 cells in 200 μl of the ATCC recommended media were seeded in each well of a 96-well plate with a moisture barrier created in the outermost wells. The cells were allowed to attach overnight at 37° C., and then observed under phase contrast microscopy for proper morphological characteristics. […] Once incubations were complete, the spectrophotometric absorbance of the samples was measured at a wavelength of 595 nm. […] For the HepaRG assay, NoSpin HepaRG™ cells (Lonza, cat #NSHPRG) were thawed and plated with 20,000 cells per well. They were allowed to attach for 4 h (optimal DME profile per Lonza's testing) before dosing following the identical protocol as above.

[4] = test system: Burkholderia thailandensis Brett et al ATCC: 700388; test: microbe, parasite or virus in culture; format: cell-based
C. albicans = test: Candida albicans MIC / MFC; format: cell-based
Trichophyton rubrum = test: MIC against Trichophyton rubrum; format: cell-based; settings: Trichophyton rubrum Castellani Sabouraud ATCC: 28188; read-out: MIC
[5] = Bacillus subtilis (Ehrenberg 1835) Cohn 1872 NRRL: B-571, read-out: MIC
[6] = strain B-571 (Table 4), read-out: Bacillus subtilis MIC
[7] = strain B-1985, read-out: Bacillus subtilis MIC
[8] = strain B-3665, read-out: Bacillus subtilis MIC
[9] = strain B-14322, read-out: Bacillus subtilis MIC
[10] = strain B-41090, read-out: Bacillus subtilis MIC
[11] = strain BD-594, read-out: Bacillus subtilis MIC
[12] = Candida glabrata #584 (Table 2), minimum fungicidal concentration
[13] = Bacillus thuringiensis Berliner ATCC: 10792
[14] = Bacillus thuringiensis Berliner ATCC: 10792, read-out: MIC
[15] = read-out: F. tularensis BSL-3 MIC, Strain 100
[16] = read-out: F. tularensis BSL-3 MIC, strain HN-63
[17] = read-out: F. tularensis BSL-3 MIC, strain LVS
[18] = read-out: F. tularensis BSL-3 MIC, strain MA00-2987
[19] = read-out: F. tularensis BSL-3 MIC, strain MO #1
[20] = read-out: F. tularensis BSL-3 MIC, strain MO #2
[21] = read-out: F. tularensis BSL-3 MIC, strain MO #3
[22] = read-out: F. tularensis BSL-3 MIC, strain OR-96
[23] = read-out: F. tularensis BSL-3 MIC, strain SCHU S4
[24] = read-out: F. tularensis BSL-3 MIC, strain WY-96
[25] = read-out: MAX, highest MIC over the Francisella tularensis strains
[26] = read-out: MIN, lowest MIC over the Francisella tularensis strains

## Oc1ccccc1Sc1c[nH]c2ccc(Br)cc12 [Compound 174AI, 2-((5-bromo-1H-indol-3-yl)thio)phenol]
Bacillus subtilis
  MBC: 6.25 µg/mL (≈ 19.5 µM)
Bacillus subtilis; [5]
  MIC: 0.78 µg/mL (≈ 2.44 µM)
Bacillus subtilis; [6]
  MIC: 0.78 µg/mL (≈ 2.44 µM)
Bacillus subtilis; [7]
  MIC: 0.78 µg/mL (≈ 2.44 µM)
Bacillus subtilis; [8]
  MIC: 6.25 µg/mL (≈ 19.5 µM)
Bacillus subtilis; [9]
  MIC: 3.13 µg/mL (≈ 9.77 µM)
Bacillus subtilis; [10]
  MIC: 6.25 µg/mL (≈ 19.5 µM)
Bacillus subtilis; strain B-41581, read-out: Bacillus subtilis MIC
  MIC: 6.25 µg/mL (≈ 19.5 µM)
Bacillus subtilis; [11]
  MIC: 6.25 µg/mL (≈ 19.5 µM)
Candida glabrata; [12]
  MFC: 25 µg/mL (≈ 78.1 µM)
Candida glabrata; Candida glabrata #584 (Table 2)
  MIC: 6.25 µg/mL (≈ 19.5 µM)
N. gonorrhoeae
  MIC: < 0.39 µg/mL
[1]
  MIC: 2 µg/mL (≈ 6.25 µM)
Bacillus thuringiensis; [13]
  MBC: > 50 µg/mL
Bacillus thuringiensis; [14]
  MIC: 0.78 µg/mL (≈ 2.44 µM)
[2]
  MIC50: 3 µg/mL (≈ 9.37 µM)
[2]; [15]
  MIC: 6 µg/mL (≈ 18.7 µM)
[2]; [16]
  MIC: 2 µg/mL (≈ 6.25 µM)
[2]; [17]
  MIC: 4 µg/mL (≈ 12.5 µM)
[2]; [18]
  MIC: 1.67 µg/mL (≈ 5.22 µM)
[2]; [19]
  MIC: 1.33 µg/mL (≈ 4.15 µM)
[2]; [20]
  MIC: 1.33 µg/mL (≈ 4.15 µM)
[2]; [21]
  MIC: 2 µg/mL (≈ 6.25 µM)
[2]; [22]
  MIC: 4 µg/mL (≈ 12.5 µM)
[2]; [23]
  MIC: 4 µg/mL (≈ 12.5 µM)
[2]; [24]
  MIC: 6 µg/mL (≈ 18.7 µM)
[2]; [25]
  MIC: 6 µg/mL (≈ 18.7 µM)
[2]; [26]
  MIC: 1.33 µg/mL (≈ 4.15 µM)
[3]; 6-week-old Balb/c mice, body weight over 7 days, vehicle 40% PEG300 in 0.9% NaCl
  toxicity in mice by body weight: did not have significant toxicity
[3]; 0.1 mg/kg, 0.1 mg/kg
  Animal body weight (kg) Day 0: 0.023 kg (2×) and 0.022 kg
  Animal body weight (kg) Day 1: 0.022 kg (2×) and 0.021 kg
  Animal body weight (kg) Day 2: 0.023 kg and 0.022 kg and 0.021 kg
  Animal body weight (kg) Day 3: 0.024 kg and 0.022 kg (2×)
  Animal body weight (kg) Day 4: 0.024 kg and 0.022 kg (2×)
  Animal body weight (kg) Day 5: 0.024 kg and 0.022 kg (2×)
  Animal body weight (kg) Day 6: 0.024 kg and 0.022 kg (2×)
  Animal body weight (kg) Day 7: 0.023 kg (2×) and 0.022 kg
[3]; 1 mg/kg, 1 mg/kg
  Animal body weight (kg) Day 0: 0.022 kg and 0.024 kg and 0.026 kg
  Animal body weight (kg) Day 1: 0.023 kg and 0.024 kg and 0.026 kg
  Animal body weight (kg) Day 2: 0.023 kg and 0.025 kg and 0.026 kg
  Animal body weight (kg) Day 3: 0.023 kg and 0.025 kg and 0.027 kg
  Animal body weight (kg) Day 4: 0.022 kg and 0.025 kg and 0.026 kg
  Animal body weight (kg) Day 5: 0.022 kg and 0.025 kg and 0.026 kg
  Animal body weight (kg) Day 6: 0.022 kg and 0.024 kg and 0.026 kg
  Animal body weight (kg) Day 7: 0.022 kg and 0.024 kg and 0.026 kg
[3]; 10 mg/kg, 10 mg/kg
  Animal body weight (kg) Day 0: 0.022 kg and 0.026 kg and 0.024 kg
  Animal body weight (kg) Day 1: 0.021 kg and 0.024 kg and 0.022 kg
  Animal body weight (kg) Day 2: 0.022 kg and 0.024 kg and 0.023 kg
  Animal body weight (kg) Day 3: 0.022 kg and 0.025 kg and 0.023 kg
  Animal body weight (kg) Day 4: 0.022 kg and 0.026 kg and 0.024 kg
  Animal body weight (kg) Day 5: 0.023 kg and 0.026 kg and 0.024 kg
  Animal body weight (kg) Day 6: 0.022 kg and 0.026 kg and 0.024 kg
  Animal body weight (kg) Day 7: 0.022 kg and 0.026 kg and 0.023 kg
NoSpin HepaRG cells
  EC50: 27.4 µg/mL (≈ 85.6 µM)
[4]
  MBC: > 50 µg/mL
  MIC: 12.5 µg/mL (≈ 39 µM)

## Brc1cccc(Sc2c[nH]c3ccc(Br)cc23)c1 [Compound 174N, 5-bromo-3-((3-bromophenyl)thio)-1H-indole]
Bacillus subtilis
  MBC: 10 µg/mL (≈ 26.1 µM)
Bacillus subtilis; [5]
  MIC: 1.25 µg/mL (≈ 3.26 µM)
Bacillus subtilis; [6]
  MIC: 1.25 µg/mL (≈ 3.26 µM)
Bacillus subtilis; [7]
  MIC: 1.25 µg/mL (≈ 3.26 µM)
Bacillus subtilis; [8]
  MIC: 1.25 µg/mL (≈ 3.26 µM)
Bacillus subtilis; [9]
  MIC: 1.25 µg/mL (≈ 3.26 µM)
Bacillus subtilis; [10]
  MIC: 2.5 µg/mL (≈ 6.53 µM)
Bacillus subtilis; [11]
  MIC: 2.5 µg/mL (≈ 6.53 µM)
C. albicans; C. albicans strain #761, read-out: MFC
  MFC: > 50 µg/mL
C. albicans; C. albicans strain #761, read-out: MIC
  MIC: 12.5 µg/mL (≈ 32.6 µM)
C. albicans; C. albicans strain #762, read-out: MFC
  MFC: 6.25 µg/mL (≈ 16.3 µM)
C. albicans; C. albicans strain #762, read-out: MIC
  MIC: 3.13 µg/mL (≈ 8.17 µM)
Candida glabrata; C. glabrata strain #325
  MIC: > 50 µg/mL
Candida glabrata; C. glabrata strain #584 (Table 7)
  MFC: 50 µg/mL (≈ 131 µM)
Candida glabrata; [12]
  MFC: 50 µg/mL (≈ 131 µM)
N. gonorrhoeae
  MIC: 1.56 µg/mL (≈ 4.07 µM)
[1]
  MIC: 1.25 µg/mL (≈ 3.26 µM)
Bacillus thuringiensis; [13]
  MBC: 10 µg/mL (≈ 26.1 µM)
Bacillus thuringiensis; ATCC10792, […]
  MIC: 1.25 µg/mL (≈ 3.26 µM)
Bacillus thuringiensis; [14]
  MIC: 1.25 µg/mL (≈ 3.26 µM)
Bacillus thuringiensis; strain B-1596
  MIC: 2.5 µg/mL (≈ 6.53 µM)
[2]
  MIC50: 4 µg/mL (≈ 10.4 µM)
[2]; [15]
  MIC: 8 µg/mL (≈ 20.9 µM)
[2]; [16]
  MIC: 4 µg/mL (≈ 10.4 µM)
[2]; [17]
  MIC: 6.67 µg/mL (≈ 17.4 µM)
[2]; [18]
  MIC: 6.67 µg/mL (≈ 17.4 µM)
[2]; [19]
  MIC: 3.33 µg/mL (≈ 8.69 µM)
[2]; [20]
  MIC: 3.67 µg/mL (≈ 9.58 µM)
[2]; [21]
  MIC: 4 µg/mL (≈ 10.4 µM)
[2]; [22]
  MIC: 4 µg/mL (≈ 10.4 µM)
[2]; [23]
  MIC: > 8 µg/mL
[2]; [24]
  MIC: 4 µg/mL (≈ 10.4 µM)
[2]; [25]
  MIC: > 8 µg/mL
[2]; [26]
  MIC: 3.33 µg/mL (≈ 8.69 µM)
Trichophyton rubrum
  MIC: < 0.57 µg/mL
NoSpin HepaRG cells
  EC50: 29.5 µg/mL (≈ 77 µM)
[4]
  MBC: > 150 µg/mL
  MIC: 50 µg/mL (≈ 131 µM)
